Laboratory results from US20220112479A1, “COMPOUNDS STABILIZING AMYLASES IN LIQUIDS” (BASF SE, priority 2018, published 2022).

Experiments:
[1] = target: T1, Savinase Ultra 16.0L (Lederbergia lenta, UniProt P29600); assay: protease storage stability in liquid formulation (Suc-AAPF-pNA substrate); format: biochemical; conditions: 1.5 wt % component (a), storage at 37° C.
T1 construct: purchased Sigma-Aldrich
T1 sequence (P29600 1-269): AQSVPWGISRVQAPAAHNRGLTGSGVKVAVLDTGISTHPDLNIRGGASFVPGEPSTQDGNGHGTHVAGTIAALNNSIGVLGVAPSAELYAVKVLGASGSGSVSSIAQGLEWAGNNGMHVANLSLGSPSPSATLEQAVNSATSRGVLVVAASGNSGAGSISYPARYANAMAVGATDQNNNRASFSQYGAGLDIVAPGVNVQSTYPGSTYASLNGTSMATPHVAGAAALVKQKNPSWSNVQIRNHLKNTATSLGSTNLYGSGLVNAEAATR
Description: Base test formulations were manufactured by making base formulations I to V by mixing the components according to Table 1.
Protease used: (S) Savinase Ultra 16.0L (CAS-No. 9014-01-1, EC-No. 232-752-2) was purchased from Sigma-Aldrich
The respective component (a) or comparative compound was added, if applicable, to the respective base formulation in amounts as indicated in Table 1.
The amount of protease as provided in Table 1 refers to active protein.
Water was added to accomplish the balance to 100.
Protease activity at certain points in time as indicated in Table 3 was be determined by employing Succinyl-Ala-Ala-Pro-Phe-p-nitroanilide (Suc-AAPF-pNA, short AAPF) as substrate. pNA is cleaved from the substrate molecule by proteolytic cleavage, resulting in release of yellow color of free pNA which was determined by measuring […]. Measurements were done at 20° C.
The proteolytic activity values provided in Table 3 were calculated referring to the value determined in the reference formulation at the time 0.
The nomenclature of formulations is as follows: the Roman number before the full stop characterizes the base formulation, the Arabian number the type of salt (A.#inventive salt (component (a)); B.# comparative compound). Zero (“0”): no salt, but diethylene glycol.

[2] = test system: Amylase; assay: amylase storage stability in liquid laundry formulation (pNP release from Ethyliden-blocked-pNPG7); format: biochemical; parameters: key: % of activity in reference formulation at time 0; conditions: 2.5 wt % component (a), storage at 37° C.
Description: The storage stability of amylase was assessed at 37° C.
Base test formulations were manufactured by making base formulations VI to IX by mixing the components according to Table 4.
Amylase activity at certain points in time as indicated in Table 5 was measured quantitatively by the release of the chromophore para-nitrophenol (pNP) from the substrate (Ethyliden-blocked-pNPG7, Roche Applied Science 10880078103). The alpha-amylase degrades the substrate into smaller molecules and α-glucosidase (Roche Applied Science 11626329103), which is present in excess compared to the amylase, process these smaller products until pNP is released; the release of pNP, measured via an increase of absorption at 405 nm, is directly proportional to the amylase activity of the sample. Amylase standard: Termamyl 120 L (Sigma 3403).
The amylolytic activity values provided were calculated referring to the value determined in the reference formulation at the time 0.
The nomenclature of formulations is as follows: the Roman number before the full stop characterizes the base formulation, the Arabian number the type of compound (A.# compound according to invention (component (a)); B.# comparative compound).

`CCOC(=O)CC(CC(=O)OCC)(OC(C)=O)C(=O)OCC` [A.5, Acetyltriethylcitrate] was tested, and the “protease activity, referring to reference formulation at time 0” value (“protease activity, referring” for short) ([1]; base formulation I., 3 d) was 96, the “protease activity, referring” value ([1]; base formulation I., 7 d) was 90 and the “protease activity, referring” value ([1]; base formulation I., 14 d) was 84. The “protease activity, referring” value ([1]; base formulation I., 21 d) was 80, the “protease activity, referring” value ([1]; base formulation I., 28 d) was 76 and the “protease activity, referring” value ([1]; base formulation I., 42 d) was 62. The “protease activity, referring” value ([1]; base formulation I., T0) was 98, the “protease activity, referring” value ([1]; base formulation III., 3 d) was 98 and the “protease activity, referring” value ([1]; base formulation III., 7 d) was 92. The “protease activity, referring” value ([1]; base formulation III., 14 d) was 83, the “protease activity, referring” value ([1]; base formulation III., 21 d) was 79 and the “protease activity, referring” value ([1]; base formulation III., 28 d) was 71. The “protease activity, referring” value ([1]; base formulation III., 42 d) was 65, the “protease activity, referring” value ([1]; base formulation III., T0) was 100 and the “amylase activity, referring to reference formulation at time 0” value (shortened to “amylase activity, referring”) ([2]; laundry base formulation IX. (2.5 DTPA), 3 d) was 91. The “amylase activity, referring” value ([2]; laundry base formulation IX. (2.5 DTPA), 7 d) was 78, the “amylase activity, referring” value ([2]; laundry base formulation IX. (2.5 DTPA), 14 d) was 69 and the “amylase activity, referring” value ([2]; laundry base formulation IX. (2.5 DTPA), 21 d) was 61. For the same molecule, the “amylase activity, referring” value ([2]; laundry base formulation IX. (2.5 DTPA), 28 d) was 53, the “amylase activity, referring” value ([2]; laundry base formulation IX. (2.5 DTPA), T0) was 98 and the “amylase activity, referring” value ([2]; laundry base formulation VII. (2.0 EDTA), 3 d) was 92. The “amylase activity, referring” value ([2]; laundry base formulation VII. (2.0 EDTA), 7 d) was 81, the “amylase activity, referring” value ([2]; laundry base formulation VII. (2.0 EDTA), 14 d) was 72 and the “amylase activity, referring” value ([2]; laundry base formulation VII. (2.0 EDTA), 21 d) was 66. For the same molecule, the “amylase activity, referring” value ([2]; laundry base formulation VII. (2.0 EDTA), 28 d) was 61, the “amylase activity, referring” value ([2]; laundry base formulation VII. (2.0 EDTA), T0) was 98 and the “amylase activity, referring” value ([2]; laundry base formulation VIII. (2.5 DTPA, no Savinase), 3 d) was 93. The “amylase activity, referring” value ([2]; laundry base formulation VIII. (2.5 DTPA, no Savinase), 7 d) was 83, the “amylase activity, referring” value ([2]; laundry base formulation VIII. (2.5 DTPA, no Savinase), 14 d) was 74 and the “amylase activity, referring” value ([2]; laundry base formulation VIII. (2.5 DTPA, no Savinase), 21 d) was 67. The “amylase activity, referring” value ([2]; laundry base formulation VIII. (2.5 DTPA, no Savinase), 28 d) was 64 and the “amylase activity, referring” value ([2]; laundry base formulation VIII. (2.5 DTPA, no Savinase), T0) was 100.
